From paper doi:10.1101/2023.03.24.534094v2 (biorxiv, 2023)
Read-outs that look alike come from different tables or passages of the source.

What was measured:
Test in all cases: biochemical
BMX = target: T1, BMX (Homo sapiens, UniProt P51813)
T1 sequence (P51813 1-675): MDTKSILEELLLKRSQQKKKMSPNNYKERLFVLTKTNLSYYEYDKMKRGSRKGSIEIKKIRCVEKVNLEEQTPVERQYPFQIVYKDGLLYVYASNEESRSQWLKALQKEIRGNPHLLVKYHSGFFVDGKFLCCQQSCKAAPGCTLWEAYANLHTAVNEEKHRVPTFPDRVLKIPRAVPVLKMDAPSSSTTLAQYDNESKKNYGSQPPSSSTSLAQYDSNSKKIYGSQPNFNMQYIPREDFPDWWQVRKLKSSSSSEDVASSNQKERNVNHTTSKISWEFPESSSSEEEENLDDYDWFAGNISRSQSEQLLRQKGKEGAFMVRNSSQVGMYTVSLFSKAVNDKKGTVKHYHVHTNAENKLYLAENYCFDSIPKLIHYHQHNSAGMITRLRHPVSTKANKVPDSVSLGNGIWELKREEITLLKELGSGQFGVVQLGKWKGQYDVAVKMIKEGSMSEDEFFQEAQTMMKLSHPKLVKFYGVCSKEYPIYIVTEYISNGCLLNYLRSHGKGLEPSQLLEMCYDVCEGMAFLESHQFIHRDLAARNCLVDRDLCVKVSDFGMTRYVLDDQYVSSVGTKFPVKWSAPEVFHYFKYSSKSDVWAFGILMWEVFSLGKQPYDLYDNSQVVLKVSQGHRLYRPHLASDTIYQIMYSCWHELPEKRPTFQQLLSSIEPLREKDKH

CDKL1 = CDKL1 (Homo sapiens, UniProt Q00532)
CLK1 = CLK1 (Homo sapiens, UniProt P49759)
CaMK1d = CaMK1d (Homo sapiens, UniProt Q8IU85)
EpHA2 = EpHA2 (Homo sapiens, UniProt P29317)
JNK2 = JNK2 (Homo sapiens, UniProt P45984)
MSK1b = MSK1b (Homo sapiens, UniProt O75582)
NDR2 = NDR2 (Homo sapiens, UniProt Q9Y2H1)
NEK1 = target: T2, NEK1 (Homo sapiens, UniProt Q96PY6)
T2 sequence (Q96PY6 1-1258): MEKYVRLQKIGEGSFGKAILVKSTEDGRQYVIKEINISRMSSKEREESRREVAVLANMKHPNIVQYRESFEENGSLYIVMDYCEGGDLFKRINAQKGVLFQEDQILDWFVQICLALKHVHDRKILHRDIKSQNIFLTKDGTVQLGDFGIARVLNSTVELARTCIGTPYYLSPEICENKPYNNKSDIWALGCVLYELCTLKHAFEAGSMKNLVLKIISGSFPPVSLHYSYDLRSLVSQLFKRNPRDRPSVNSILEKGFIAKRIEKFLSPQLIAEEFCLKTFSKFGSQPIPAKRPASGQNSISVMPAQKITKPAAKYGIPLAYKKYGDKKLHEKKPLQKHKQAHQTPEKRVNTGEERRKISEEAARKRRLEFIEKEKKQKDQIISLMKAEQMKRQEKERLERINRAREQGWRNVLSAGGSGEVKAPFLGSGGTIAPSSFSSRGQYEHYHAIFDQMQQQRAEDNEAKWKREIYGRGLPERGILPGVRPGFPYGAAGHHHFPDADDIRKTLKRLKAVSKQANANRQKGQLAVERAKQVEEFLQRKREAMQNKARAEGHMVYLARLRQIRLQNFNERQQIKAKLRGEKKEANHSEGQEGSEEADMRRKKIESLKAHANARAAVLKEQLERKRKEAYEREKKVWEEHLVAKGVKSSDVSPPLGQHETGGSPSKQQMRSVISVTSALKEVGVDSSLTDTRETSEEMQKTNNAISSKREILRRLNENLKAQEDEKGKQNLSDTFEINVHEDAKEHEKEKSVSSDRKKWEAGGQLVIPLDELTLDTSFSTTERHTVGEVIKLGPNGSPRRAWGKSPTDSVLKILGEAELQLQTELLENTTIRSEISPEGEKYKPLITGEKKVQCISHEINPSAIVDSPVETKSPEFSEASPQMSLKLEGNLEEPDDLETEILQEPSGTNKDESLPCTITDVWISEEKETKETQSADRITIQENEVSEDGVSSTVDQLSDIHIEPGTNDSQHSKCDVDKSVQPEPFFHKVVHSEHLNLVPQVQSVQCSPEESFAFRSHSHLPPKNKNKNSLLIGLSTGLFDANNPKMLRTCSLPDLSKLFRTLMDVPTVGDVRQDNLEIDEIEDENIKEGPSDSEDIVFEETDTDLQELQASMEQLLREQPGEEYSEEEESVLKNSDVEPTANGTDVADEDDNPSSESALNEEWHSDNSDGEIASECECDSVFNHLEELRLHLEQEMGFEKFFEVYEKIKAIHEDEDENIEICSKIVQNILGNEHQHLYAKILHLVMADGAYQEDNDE

NEK7 = NEK7 (Homo sapiens, UniProt Q8TDX7)
SRC = SRC (Homo sapiens, UniProt P12931)
Sequence of SRC (P12931 whole entry): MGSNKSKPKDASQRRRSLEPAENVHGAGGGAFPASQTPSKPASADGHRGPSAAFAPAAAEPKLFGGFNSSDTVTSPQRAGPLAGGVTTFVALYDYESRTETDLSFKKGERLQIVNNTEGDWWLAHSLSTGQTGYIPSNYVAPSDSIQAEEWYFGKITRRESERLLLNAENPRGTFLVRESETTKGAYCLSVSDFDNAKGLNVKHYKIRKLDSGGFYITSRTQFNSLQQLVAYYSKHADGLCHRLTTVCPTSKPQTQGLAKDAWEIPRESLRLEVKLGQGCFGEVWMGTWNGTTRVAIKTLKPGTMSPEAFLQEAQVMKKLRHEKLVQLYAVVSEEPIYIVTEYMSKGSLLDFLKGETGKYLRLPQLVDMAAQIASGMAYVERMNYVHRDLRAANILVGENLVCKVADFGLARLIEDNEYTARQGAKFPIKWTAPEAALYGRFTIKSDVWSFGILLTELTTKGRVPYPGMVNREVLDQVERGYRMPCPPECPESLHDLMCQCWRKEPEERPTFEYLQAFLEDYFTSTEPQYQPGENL

Sequence of NDR2 (Q9Y2H1 whole entry): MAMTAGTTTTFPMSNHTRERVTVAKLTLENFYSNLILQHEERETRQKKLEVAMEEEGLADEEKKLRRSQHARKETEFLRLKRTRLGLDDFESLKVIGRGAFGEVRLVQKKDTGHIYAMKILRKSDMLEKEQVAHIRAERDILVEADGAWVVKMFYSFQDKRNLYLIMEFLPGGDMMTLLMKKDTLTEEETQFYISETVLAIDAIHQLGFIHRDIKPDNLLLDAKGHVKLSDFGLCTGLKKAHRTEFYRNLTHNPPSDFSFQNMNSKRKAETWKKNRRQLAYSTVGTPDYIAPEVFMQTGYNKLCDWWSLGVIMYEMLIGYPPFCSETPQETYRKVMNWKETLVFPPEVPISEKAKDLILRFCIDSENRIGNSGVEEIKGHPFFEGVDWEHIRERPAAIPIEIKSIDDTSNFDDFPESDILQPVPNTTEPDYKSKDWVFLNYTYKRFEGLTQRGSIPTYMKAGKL
Sequence of CaMK1d (Q8IU85 whole entry): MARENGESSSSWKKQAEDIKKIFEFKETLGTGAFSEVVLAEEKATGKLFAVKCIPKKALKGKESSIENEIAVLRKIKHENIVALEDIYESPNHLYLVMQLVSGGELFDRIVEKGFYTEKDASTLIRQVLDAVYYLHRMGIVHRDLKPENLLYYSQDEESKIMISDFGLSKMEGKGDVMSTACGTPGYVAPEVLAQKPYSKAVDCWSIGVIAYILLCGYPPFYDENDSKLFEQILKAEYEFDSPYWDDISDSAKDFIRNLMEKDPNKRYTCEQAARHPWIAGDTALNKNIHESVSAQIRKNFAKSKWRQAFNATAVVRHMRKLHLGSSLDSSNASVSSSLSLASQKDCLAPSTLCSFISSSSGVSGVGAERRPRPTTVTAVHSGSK
Sequence of CDKL1 (Q00532 whole entry): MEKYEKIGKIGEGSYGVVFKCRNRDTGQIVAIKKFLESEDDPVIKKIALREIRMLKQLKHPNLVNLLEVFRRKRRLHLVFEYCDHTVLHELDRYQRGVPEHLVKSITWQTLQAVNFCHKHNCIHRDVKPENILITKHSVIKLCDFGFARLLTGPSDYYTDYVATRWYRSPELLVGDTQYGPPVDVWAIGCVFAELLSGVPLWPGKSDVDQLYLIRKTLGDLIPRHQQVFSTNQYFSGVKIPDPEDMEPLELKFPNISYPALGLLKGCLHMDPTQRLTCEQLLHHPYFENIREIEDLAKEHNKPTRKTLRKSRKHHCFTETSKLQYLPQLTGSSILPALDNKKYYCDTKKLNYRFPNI
Sequence of JNK2 (P45984 whole entry): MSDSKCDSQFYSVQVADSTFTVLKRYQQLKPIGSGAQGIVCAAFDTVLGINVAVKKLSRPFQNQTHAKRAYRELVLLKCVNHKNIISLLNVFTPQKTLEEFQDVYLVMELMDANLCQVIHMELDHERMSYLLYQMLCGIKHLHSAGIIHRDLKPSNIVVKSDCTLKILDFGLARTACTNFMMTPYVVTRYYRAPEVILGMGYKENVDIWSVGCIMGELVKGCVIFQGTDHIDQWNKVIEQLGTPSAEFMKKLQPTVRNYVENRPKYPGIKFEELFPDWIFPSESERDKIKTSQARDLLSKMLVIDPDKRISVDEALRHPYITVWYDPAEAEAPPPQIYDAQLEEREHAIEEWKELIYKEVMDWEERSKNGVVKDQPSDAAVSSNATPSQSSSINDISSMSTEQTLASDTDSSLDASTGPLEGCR
Sequence of MSK1b (O75582 whole entry): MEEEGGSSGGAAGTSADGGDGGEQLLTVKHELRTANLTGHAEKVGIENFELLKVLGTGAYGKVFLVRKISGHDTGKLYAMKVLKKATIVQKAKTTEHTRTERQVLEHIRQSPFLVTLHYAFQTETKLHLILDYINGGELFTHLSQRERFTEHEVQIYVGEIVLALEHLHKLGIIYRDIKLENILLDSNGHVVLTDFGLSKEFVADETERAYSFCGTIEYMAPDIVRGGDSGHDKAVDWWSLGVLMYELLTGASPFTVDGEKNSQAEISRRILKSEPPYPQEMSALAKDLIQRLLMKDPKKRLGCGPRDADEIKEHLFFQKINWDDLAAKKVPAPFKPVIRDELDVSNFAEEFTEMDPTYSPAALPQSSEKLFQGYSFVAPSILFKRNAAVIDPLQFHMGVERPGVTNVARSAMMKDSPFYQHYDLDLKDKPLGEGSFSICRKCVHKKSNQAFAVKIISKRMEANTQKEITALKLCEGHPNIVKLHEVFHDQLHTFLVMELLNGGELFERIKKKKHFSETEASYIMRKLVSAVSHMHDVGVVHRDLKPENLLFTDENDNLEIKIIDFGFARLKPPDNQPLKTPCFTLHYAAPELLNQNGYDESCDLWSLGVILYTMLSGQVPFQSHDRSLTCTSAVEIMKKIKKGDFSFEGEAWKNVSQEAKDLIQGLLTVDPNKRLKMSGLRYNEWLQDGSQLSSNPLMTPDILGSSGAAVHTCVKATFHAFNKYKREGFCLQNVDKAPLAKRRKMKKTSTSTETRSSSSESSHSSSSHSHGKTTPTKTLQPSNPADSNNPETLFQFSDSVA
Sequence of EpHA2 (P29317 whole entry): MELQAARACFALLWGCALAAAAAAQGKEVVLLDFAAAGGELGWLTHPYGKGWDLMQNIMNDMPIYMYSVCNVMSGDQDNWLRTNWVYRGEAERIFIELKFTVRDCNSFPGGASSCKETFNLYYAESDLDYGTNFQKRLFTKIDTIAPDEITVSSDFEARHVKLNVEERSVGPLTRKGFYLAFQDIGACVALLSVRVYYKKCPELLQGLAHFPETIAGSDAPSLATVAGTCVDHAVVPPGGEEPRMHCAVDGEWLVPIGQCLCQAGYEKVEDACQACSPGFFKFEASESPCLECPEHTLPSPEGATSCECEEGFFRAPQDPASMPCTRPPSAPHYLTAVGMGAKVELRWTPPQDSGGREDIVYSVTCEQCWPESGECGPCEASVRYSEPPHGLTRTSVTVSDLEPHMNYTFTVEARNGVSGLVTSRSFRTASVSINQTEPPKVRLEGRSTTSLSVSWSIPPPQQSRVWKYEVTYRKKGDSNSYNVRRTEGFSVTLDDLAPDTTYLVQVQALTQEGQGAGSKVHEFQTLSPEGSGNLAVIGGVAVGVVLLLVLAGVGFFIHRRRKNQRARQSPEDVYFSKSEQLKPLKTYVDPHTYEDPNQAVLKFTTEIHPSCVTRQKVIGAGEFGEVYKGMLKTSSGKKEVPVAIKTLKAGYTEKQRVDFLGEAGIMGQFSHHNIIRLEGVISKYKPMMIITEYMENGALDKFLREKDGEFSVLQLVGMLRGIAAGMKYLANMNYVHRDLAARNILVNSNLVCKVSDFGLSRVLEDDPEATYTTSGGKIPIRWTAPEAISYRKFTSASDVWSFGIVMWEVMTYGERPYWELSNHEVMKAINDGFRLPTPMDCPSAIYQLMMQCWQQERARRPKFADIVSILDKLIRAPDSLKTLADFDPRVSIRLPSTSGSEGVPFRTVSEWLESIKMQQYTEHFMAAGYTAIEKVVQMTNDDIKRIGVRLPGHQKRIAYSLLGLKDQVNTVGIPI
Sequence of NEK7 (Q8TDX7 whole entry): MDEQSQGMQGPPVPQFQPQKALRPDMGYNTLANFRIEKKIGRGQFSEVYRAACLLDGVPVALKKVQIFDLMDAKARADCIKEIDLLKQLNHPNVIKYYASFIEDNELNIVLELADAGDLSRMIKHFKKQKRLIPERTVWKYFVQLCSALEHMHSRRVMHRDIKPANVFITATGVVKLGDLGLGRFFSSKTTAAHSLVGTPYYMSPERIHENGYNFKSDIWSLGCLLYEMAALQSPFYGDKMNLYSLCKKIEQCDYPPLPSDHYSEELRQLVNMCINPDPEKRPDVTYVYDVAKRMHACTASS
Sequence of CLK1 (P49759 whole entry): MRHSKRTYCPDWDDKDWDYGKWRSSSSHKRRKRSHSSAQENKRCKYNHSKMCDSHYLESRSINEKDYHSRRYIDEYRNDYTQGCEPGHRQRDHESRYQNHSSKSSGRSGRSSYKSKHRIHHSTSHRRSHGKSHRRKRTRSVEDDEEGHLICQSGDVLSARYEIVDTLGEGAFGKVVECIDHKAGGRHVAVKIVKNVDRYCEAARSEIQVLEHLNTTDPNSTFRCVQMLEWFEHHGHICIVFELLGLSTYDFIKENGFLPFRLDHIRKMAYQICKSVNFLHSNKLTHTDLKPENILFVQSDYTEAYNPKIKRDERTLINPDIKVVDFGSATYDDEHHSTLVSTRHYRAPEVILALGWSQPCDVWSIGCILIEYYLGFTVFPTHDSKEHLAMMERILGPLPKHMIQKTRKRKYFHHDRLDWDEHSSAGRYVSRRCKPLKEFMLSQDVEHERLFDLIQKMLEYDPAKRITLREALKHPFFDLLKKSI

CNc1ncc2cc(-c3cc(Cl)ccc3Br)c(=O)n(CCCCN)c2n1 [compound 10, 8-(4-Aminobutyl)-6-(2-bromo-5-chlorophenyl)-2-(methylamino)pyrido[2,3-d]pyrimidin-7(8H)-one]
ΔTm at 10 µM (BMX; read-out: dTm 10): 3.9 °C
ΔTm at 10 µM (CDKL1; read-out: dTm 10): 0.3 °C
ΔTm at 10 µM (CLK1; read-out: dTm 10): 0.4 °C
ΔTm at 10 µM (CaMK1d; read-out: dTm 10): 2 °C
ΔTm at 10 µM (EpHA2; read-out: dTm 10): 7.4 °C
ΔTm at 10 µM (JNK2; read-out: dTm 10): 0.9 °C
ΔTm at 10 µM (MSK1b; read-out: dTm 10): 2.1 °C
ΔTm at 10 µM (NDR2; read-out: dTm 10): 0.4 °C
ΔTm at 10 µM (NEK1; read-out: dTm 10): 0.1 °C
ΔTm at 10 µM (NEK7; read-out: dTm 10): -0.5 °C
ΔTm at 10 µM (SRC; read-out: dTm 10): 0.6 °C

CNc1ncc2cc(-c3cc(Cl)ccc3Cl)c(=O)n(CCCCN)c2n1 [compound 8, 8-(4-Aminobutyl)-6-(2,5-dichlorophenyl)-2-(methylamino)pyrido[2,3-d]pyrimidin-7(8H)-one]
ΔTm at 10 µM (BMX; read-out: dTm 8): 4 °C
ΔTm at 10 µM (CDKL1; read-out: dTm 8): 0.2 °C
ΔTm at 10 µM (CLK1; read-out: dTm 8): 0.6 °C
ΔTm at 10 µM (CaMK1d; read-out: dTm 8): 2.4 °C
ΔTm at 10 µM (EpHA2; read-out: dTm 8): 7.1 °C
ΔTm at 10 µM (JNK2; read-out: dTm 8): 1.2 °C
ΔTm at 10 µM (MSK1b; read-out: dTm 8): 2.1 °C
ΔTm at 10 µM (NDR2; read-out: dTm 8): 0.4 °C
ΔTm at 10 µM (NEK1; read-out: dTm 8): 0.1 °C
ΔTm at 10 µM (NEK7; read-out: dTm 8): -0.2 °C
ΔTm at 10 µM (SRC; read-out: dTm 8): 0.6 °C

CNc1ncc2cc(-c3cc(C(F)(F)F)ccc3Cl)c(=O)n(CCCCN)c2n1 [compound 9, 8-(4-Aminobutyl)-6-(2-chloro-5-(trifluoromethyl)phenyl)-2-(methylamino)pyrido[2,3-d]pyrimidin-7(8H)-one]
ΔTm at 10 µM (BMX; read-out: dTm 9): 3.2 °C
ΔTm at 10 µM (CDKL1; read-out: dTm 9): 0 °C
ΔTm at 10 µM (CLK1; read-out: dTm 9): 0.4 °C
ΔTm at 10 µM (CaMK1d; read-out: dTm 9): 2.3 °C
ΔTm at 10 µM (EpHA2; read-out: dTm 9): 4.8 °C
ΔTm at 10 µM (JNK2; read-out: dTm 9): 1 °C
ΔTm at 10 µM (MSK1b; read-out: dTm 9): 0.9 °C
ΔTm at 10 µM (NDR2; read-out: dTm 9): 0.1 °C
ΔTm at 10 µM (NEK1; read-out: dTm 9): 0.1 °C
ΔTm at 10 µM (NEK7; read-out: dTm 9): 0.4 °C
ΔTm at 10 µM (SRC; read-out: dTm 9): 0 °C

CNc1ncc2cc(-c3cc(Br)ccc3Br)c(=O)n(CCCCN)c2n1 [compound 11, 8-(4-Aminobutyl)-6-(2,5-dibromophenyl)-2-(methylamino)pyrido[2,3-d]pyrimidin-7(8H)-one]
ΔTm at 10 µM (BMX; read-out: dTm 11): 4.2 °C
ΔTm at 10 µM (CDKL1; read-out: dTm 11): 0.4 °C
ΔTm at 10 µM (CLK1; read-out: dTm 11): 0.4 °C
ΔTm at 10 µM (CaMK1d; read-out: dTm 11): 2.3 °C
ΔTm at 10 µM (EpHA2; read-out: dTm 11): 6.4 °C
ΔTm at 10 µM (JNK2; read-out: dTm 11): 1.2 °C
ΔTm at 10 µM (MSK1b; read-out: dTm 11): 2 °C
ΔTm at 10 µM (NDR2; read-out: dTm 11): 0.5 °C
ΔTm at 10 µM (NEK1; read-out: dTm 11): 0.1 °C
ΔTm at 10 µM (NEK7; read-out: dTm 11): -0.2 °C
ΔTm at 10 µM (SRC; read-out: dTm 11): 0.4 °C

CNc1ncc2cc(-c3cc(F)c(-c4cccc(C)n4)cc3F)c(=O)n(CCCCN)c2n1 [compound 12, 8-(4-Aminobutyl)-6-(2,5-difluoro-4-(6-methylpyridin-2-yl)phenyl)-2-(methylamino)pyrido[2,3-d]pyrimidin-7(8H)-one]
ΔTm at 10 µM (BMX; read-out: dTm 12): 3.6 °C
ΔTm at 10 µM (CDKL1; read-out: dTm 12): 0.2 °C
ΔTm at 10 µM (CLK1; read-out: dTm 12): -0.1 °C
ΔTm at 10 µM (CaMK1d; read-out: dTm 12): 3.1 °C
ΔTm at 10 µM (EpHA2; read-out: dTm 12): 3.9 °C
ΔTm at 10 µM (JNK2; read-out: dTm 12): 0.2 °C
ΔTm at 10 µM (MSK1b; read-out: dTm 12): 1 °C
ΔTm at 10 µM (NDR2; read-out: dTm 12): 5.2 °C
ΔTm at 10 µM (NEK1; read-out: dTm 12): -0.4 °C
ΔTm at 10 µM (NEK7; read-out: dTm 12): -2.1 °C
ΔTm at 10 µM (SRC; read-out: dTm 12): 1.2 °C
